In ChEMBL document CHEMBL1201862, “PubChem BioAssay data set” (2004):
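The compound was tested at five concentrations on cells cultured in 96-well plates, with a 48-hour exposure period. GI50: concentration for 50% inhibition of growth.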 The source made the active and inactive calls. No stated cut-off is given here; in the data, active = GI50 up to about 1.1 µM and inactive = higher.

Key:
Assay in all cases: growth of human tumour cells (NCI), 48 h
SW-620 = test system: SW-620
SNB-78 = test system: SNB-78
CCRF-CEM = test system: CCRF-CEM
NCI-H23 = test system: NCI-H23
NCI-H226 = test system: NCI-H226
COLO 205 = test system: COLO 205
DMS-114 = test system: DMS-114
UACC-257 = test system: UACC-257
OVCAR-3 = test system: OVCAR-3
M19-MEL = test system: M19-MEL
SK-MEL-28 = test system: SK-MEL-28
DLD-1 = test system: DLD-1
HL-60 = test system: HL-60
SF-268 = test system: SF-268
ACHN = test system: ACHN
HCT-116 = test system: HCT-116
K562 = test system: K562
TK-10 = test system: TK-10
Malme-3M = test system: Malme-3M
RXF 393 = test system: RXF 393
SN12C = test system: SN12C
HOP-62 = test system: HOP-62
SK-OV-3 = test system: SK-OV-3
OVCAR-8 = test system: OVCAR-8
OVCAR-5 = test system: OVCAR-5
LXFL 529 = test system: LXFL 529
UACC-62 = test system: UACC-62
SF-295 = test system: SF-295
U-251 = test system: U-251
HCC 2998 = test system: HCC 2998
HOP-92 = test system: HOP-92
NCI-H522 = test system: NCI-H522
SK-MEL-2 = test system: SK-MEL-2
SNB-19 = test system: SNB-19
HT-29 = test system: HT-29
HOP-18 = test system: HOP-18
SNB-75 = test system: SNB-75
EKVX = test system: EKVX
HCT-15 = test system: HCT-15
MOLT-4 = test system: MOLT-4
A549 = test system: A549
NCI-H460 = test system: NCI-H460
KM-20L2 = test system: KM-20L2
XF498 = test system: XF498
RPMI-8226 = test system: RPMI-8226
SF-539 = test system: SF-539
IGROV-1 = test system: IGROV-1
SK-MEL-5 = test system: SK-MEL-5
UO-31 = test system: UO-31
CAKI-1 = test system: CAKI-1
OVCAR-4 = test system: OVCAR-4
M14 = test system: M14
SR = test system: SR
LOX IMVI = test system: LOX IMVI
A498 = test system: A498
786-0 = test system: 786-0
KM12 = test system: KM12
DMS-273 = test system: DMS-273

O=C(Nc1ccc(Cl)cc1)c1cc2cc(/N=N/c3ccccc3Cl)ccc2oc1=O
GI50 (SW-620): 18.1 µM (inactive) | GI50 (SNB-78): 22.9 µM (inactive) | GI50 (CCRF-CEM): 2.01 µM (inactive) | GI50 (NCI-H23): 13.3 µM (inactive) | GI50 (NCI-H226): 22.3 µM (inactive) | GI50 (COLO 205): 34.1 µM (inactive) | GI50 (DMS-114): 5.81 µM (inactive) | GI50 (UACC-257): 19.2 µM (inactive) | GI50 (OVCAR-3): 22.2 µM (inactive) | GI50 (M19-MEL): 14.3 µM (inactive) | GI50 (SK-MEL-28): 15.9 µM (inactive) | GI50 (DLD-1): 9.64 µM (inactive) | GI50 (HL-60): 2.14 µM (inactive) | GI50 (SF-268): 15.2 µM (inactive) | GI50 (ACHN): 6.3 µM (inactive) | GI50 (HCT-116): 11.2 µM (inactive) | GI50 (K562): 5.28 µM (inactive) | GI50 (TK-10): 33.3 µM (inactive) | GI50 (Malme-3M): 18.5 µM (inactive) | GI50 (RXF 393): 46.9 µM (inactive) | GI50 (SN12C): 18.7 µM (inactive) | GI50 (HOP-62): 26.9 µM (inactive) | GI50 (SK-OV-3): 46.9 µM (inactive) | GI50 (OVCAR-8): 13.4 µM (inactive) | GI50 (OVCAR-5): 44.6 µM (inactive) | GI50 (LXFL 529): 8.11 µM (inactive) | GI50 (UACC-62): 8.39 µM (inactive) | GI50 (SF-295): 28.7 µM (inactive) | GI50 (U-251): 14.2 µM (inactive) | GI50 (HCC 2998): 18.9 µM (inactive) | GI50 (HOP-92): 18.9 µM (inactive) | GI50 (NCI-H522): 21.7 µM (inactive) | GI50 (SK-MEL-2): 18.1 µM (inactive) | GI50 (SNB-19): 27.5 µM (inactive) | GI50 (HT-29): 15.2 µM (inactive) | GI50 (HOP-18): 33.8 µM (inactive) | GI50 (SNB-75): 24 µM (inactive) | GI50 (EKVX): 25.5 µM (inactive) | GI50 (HCT-15): 2.74 µM | GI50 (MOLT-4): 2.58 µM (inactive) | GI50 (A549): 29.2 µM (inactive) | GI50 (NCI-H460): 26.8 µM (inactive) | GI50 (KM-20L2): 4.93 µM (inactive) | GI50 (XF498): 24.4 µM (inactive) | GI50 (RPMI-8226): 4.76 µM (inactive) | GI50 (SF-539): 14 µM (inactive) | GI50 (IGROV-1): 19 µM (inactive) | GI50 (SK-MEL-5): 22.2 µM (inactive) | GI50 (UO-31): 11.6 µM (inactive) | GI50 (CAKI-1): 24.9 µM (inactive) | GI50 (OVCAR-4): 22 µM (inactive) | GI50 (M14): 15.5 µM (inactive) | GI50 (SR): 15.8 µM (inactive)

O=C(NCC(=O)N1CCOC1=O)OCc1ccccc1
GI50 (SW-620): > 100 µM (inactive) | GI50 (SNB-78): > 100 µM (inactive) | GI50 (CCRF-CEM): > 100 µM (inactive) | GI50 (NCI-H23): > 100 µM (inactive) | GI50 (NCI-H226): > 100 µM (inactive) | GI50 (COLO 205): > 100 µM (inactive) | GI50 (DMS-114): > 100 µM (inactive) | GI50 (UACC-257): > 100 µM (inactive) | GI50 (OVCAR-3): > 100 µM (inactive) | GI50 (M19-MEL): > 100 µM (inactive) | GI50 (SK-MEL-28): > 100 µM (inactive) | GI50 (DLD-1): > 100 µM (inactive) | GI50 (HL-60): > 100 µM (inactive) | GI50 (LOX IMVI): > 100 µM (inactive) | GI50 (SF-268): > 100 µM (inactive) | GI50 (ACHN): > 100 µM (inactive) | GI50 (HCT-116): > 100 µM (inactive) | GI50 (A498): > 100 µM (inactive) | GI50 (K562): > 100 µM (inactive) | GI50 (TK-10): > 100 µM (inactive) | GI50 (RXF 393): > 100 µM (inactive) | GI50 (SN12C): > 100 µM (inactive) | GI50 (HOP-62): > 100 µM (inactive) | GI50 (SK-OV-3): > 100 µM (inactive) | GI50 (OVCAR-8): > 100 µM (inactive) | GI50 (786-0): > 100 µM (inactive) | GI50 (UACC-62): > 100 µM (inactive) | GI50 (SF-295): > 100 µM (inactive) | GI50 (U-251): > 100 µM (inactive) | GI50 (HCC 2998): > 100 µM (inactive) | GI50 (HOP-92): > 100 µM (inactive) | GI50 (NCI-H522): > 100 µM (inactive) | GI50 (SK-MEL-2): > 100 µM (inactive) | GI50 (SNB-19): > 100 µM (inactive) | GI50 (HT-29): > 100 µM (inactive) | GI50 (HOP-18): > 100 µM (inactive) | GI50 (SNB-75): > 100 µM (inactive) | GI50 (EKVX): > 100 µM (inactive) | GI50 (HCT-15): > 100 µM | GI50 (MOLT-4): > 100 µM (inactive) | GI50 (A549): > 100 µM (inactive) | GI50 (NCI-H460): > 100 µM (inactive) | GI50 (KM12): > 100 µM (inactive) | GI50 (KM-20L2): > 100 µM (inactive) | GI50 (XF498): > 100 µM (inactive) | GI50 (RPMI-8226): > 100 µM (inactive) | GI50 (DMS-273): > 100 µM (inactive) | GI50 (SF-539): > 100 µM (inactive) | GI50 (IGROV-1): > 100 µM (inactive) | GI50 (SK-MEL-5): > 100 µM (inactive) | GI50 (UO-31): > 100 µM (inactive) | GI50 (OVCAR-4): > 100 µM (inactive) | GI50 (M14): > 100 µM (inactive)
